Experimental data: ChEMBL document CHEMBL1127919 (Bioorg Med Chem Lett, 1994)
Calls of active or inactive are those of the source. No cut-off for these calls is given here.

Experiments:
Melatonin receptor = Melatonin receptor (Gallus gallus, UniProt P49288+P51050+P49285); test: Binding affinity towards melatonin receptor was determined using 2-[125I]iodomelatonin as radioligand in chick brain membranes; type: cell membranes, Membrane
Xenopus laevis [1] = organism: Xenopus laevis; test: Agonistic activity was determined in a pigment aggregation model using cultured melanophores isolated from the neural crest of Xenopus laevis embryos.; type: functional; conditions: frog; filed as agonist
Xenopus laevis [2] = organism: Xenopus laevis; test: Agonistic activity was determined in a pigment aggregation model using cultured melanophores isolated from the neural crest of Xenopus laevis embryos; type: functional, frog
Xenopus laevis [3] = organism: Xenopus laevis; test: Agonistic activity was determined in a pigment aggregation model using cultured melanophores isolated from the neural crest of Xenopus laevis embryos; partial agonist; type: functional; conditions: frog; filed as partial agonist
Xenopus laevis [4] = organism: Xenopus laevis; test: Agonistic activity was determined in a pigment aggregation model using cultured melanophores isolated from the neural crest of Xenopus laevis embryos; inactive; type: functional; conditions: frog
Xenopus laevis [5] = organism: Xenopus laevis; test: Agonistic activity was determined in a pigment aggregation model using cultured melanophores isolated from the neural crest of Xenopus laevis embryos; mixed; type: functional; conditions: frog; filed as partial agonist

| SMILES | Ki (Melatonin receptor) [nM] | Activity (Xenopus laevis [1]) | other results |
| --- | --- | --- | --- |
| CCC(=O)NC1CCCc2c1c1ccccc1n2C (stereo not given) | 204 | Agonist | – |
| O=C(CBr)NC1CCc2[nH]c3ccccc3c2C1 (stereo not given) | 740 | – | EC50 (Xenopus laevis [2]): < 1000 nM; Activity (Xenopus laevis [3]): Partial agonist |
| CCCC(=O)NC1CCCc2c1c1ccccc1n2C (stereo not given) | 215 | Agonist | – |
| COc1ccc2c(c1)c1c(n2C)CCCC1NC(=O)C(F)(F)F (stereo not given) | 1.98 | Agonist | – |
| Cn1c2c(c3ccccc31)C(NC(=O)C1CC1)CCC2 (stereo not given) | 4460 | Agonist | – |
| CCCC(=O)NC1CCCc2c1c1cc(OC)ccc1n2C (stereo not given) | 0.378 | Agonist | EC50 (Xenopus laevis [2]): 2.5 nM |
| CCCCC(=O)NC1CCCc2c1c1cc(OC)ccc1n2C (stereo not given) | 82 | Agonist | – |
| CCC(=O)NC1CCc2[nH]c3ccc(OC)cc3c2C1 (stereo not given) | 41 | – | – |
| COc1ccc2[nH]c3c(c2c1)CC(NC(=O)C(F)(F)F)CC3 (stereo not given) | 102 | – | – |
| COc1ccc2[nH]c3c(c2c1)CC(NC(=O)CBr)CC3 (stereo not given) | 8.3 | – | Activity (Xenopus laevis [5]): Partial agonist |
| CC(=O)NC1CCCc2c1c1ccccc1n2C (stereo not given) | 227 | Agonist | – |

Now from value to molecule, other results behind:

| Ki (Melatonin receptor) [nM] | SMILES | Activity (Xenopus laevis [1]) | other results |
| --- | --- | --- | --- |
| 254 | COc1ccc2c(c1)c(CCNC(C)=O)cn2C | – | – |
| 560 | CCCC(=O)NC1CCc2[nH]c3ccc(OC)cc3c2C1 (stereo not given) | Agonist | EC50 (Xenopus laevis [2]): 10000 nM |
| 1060 | CCCC(=O)NC1CCc2[nH]c3ccccc3c2C1 (stereo not given) | – | Activity (Xenopus laevis [4]): inactive |
| 0.97 | COc1ccc2c(c1)c1c(n2C)CCCC1NC(C)=O (stereo not given) | Agonist | – |
| 219 | COc1ccc2[nH]c3c(c2c1)CC(NC(C)=O)CC3 (stereo not given) | Agonist | – |
| > 10000 | CCCCC(=O)NC1CCCc2c1c1ccccc1n2C (stereo not given) | Agonist | – |
| 570 | COc1ccc2[nH]c3c(c2c1)CC(NC(=O)C1CC1)CC3 (stereo not given) | Agonist | – |
| 436 | CCC(=O)NC1CCc2[nH]c3ccccc3c2C1 (stereo not given) | – | EC50 (Xenopus laevis [2]): > 10000 nM; Activity (Xenopus laevis [3]): Partial agonist |
| 30 | COc1ccc2c(c1)c1c(n2C)CCCC1NC(=O)C1CC1 (stereo not given) | Agonist | – |
| 766 | Cn1c2c(c3ccccc31)C(NC(=O)C(F)(F)F)CCC2 (stereo not given) | Agonist | – |
| 271 | COc1ccc2c(c1)c1c(n2C)CCCC1NC(=O)C1CCC1 (stereo not given) | Agonist | – |
| > 10000 | CCC(Br)C(=O)NC1CCc2[nH]c3ccccc3c2C1 (stereo not given) | – | – |
| 1.44 | CCC(=O)NC1CCCc2c1c1cc(OC)ccc1n2C (stereo not given) | Agonist | – |
| 5350 | CC(=O)NC1CCc2[nH]c3ccccc3c2C1 (stereo not given) | – | – |
| 4630 | O=C(NC1CCc2[nH]c3ccccc3c2C1)C(F)(F)F (stereo not given) | – | – |
